Reference: patent US8669377B2, “Anti-human urothelial carcinoma of supercritical carbon dioxide extract of Cinnamomum subavenium, and the preparation process and uses” (Kaohsiung Medical University, priority 2011, dated 2014)
Read-outs that look alike come from different tables or passages of the source.

Tests used:
[1] = tested on: human urothelial carcinoma cell line NTUB1; test: MTT cytotoxicity assay, NTUB1; assay type: cell-based
Description: (§1) Cytotoxicity assay was performed by using C. subavenium supercritical CO2 extract obtained according to the preparation method mentioned above. […] C. subavenium supercritical CO2 extract selectively functioned on NTUB1 carcinoma cells rather than the normal cells.
(§2) Cellular cytotoxicity of tested compounds was performed by using a MTT (3-[4,5-dimethylthiazol-2-yl]-2,5-diphenyltetrazolium bromide) assay. Briefly, the cells were plated with a density of 1×10^3 cells/well in 96-well plates and incubated at 37° C. overnight before drug treatment. Cells were then cultured in the absence or presence of various concentrations (0.3, 1, 3, 6, 9, 12, 15 and 20 μM) of subamolide A at 37° C. for 72 hours. Subsequently, 50 μL of MTT (2 mg/mL in PBS) was added to each well and allowed to react for another 4 hours. Following centrifugation at 1000×g for 10 minutes, media were removed and 150 μL DMSO were added to each well. The proportions of surviving cells were determined by absorbance spectrometry at 540 nm using a microplate reader. The cell viability was expressed as the survival ratio to the un-treated control. The IC50 values of each group were calculated by the median inhibitory analysis and presented as means±SD. The combinational effects of two compounds were analyzed by median-effect analysis. To evaluate the combined effects in growth inhibition, a corresponding combination index (CI) was adopted for the measurement. The combination index of <1, =1, or >1 denotes synergic, additive, or antagonistic effect, respectively.

[2] = tested on: NTUB1 cells; test: Immunoblotting of cellular proteins; assay type: cell-based, human
[3] = tested on: NTUB1 cells; test: Cell cycle / sub-G1 apoptotic fraction by flow cytometry; assay type: cell-based, human; details: 24 hours
[4] = tested on: prostate cancer cells PC3; test: MTT cytotoxicity assay, PC3; assay type: cell-based, human; details: PC3, 72 hours; read-out: IC50 (reduction of growth)
Description: as §2

[5] = tested on: SV-HUC-1 cells; test: Intracellular ROS (DCFH-DA flow cytometry), SV-HUC-1; assay type: cell-based, human; details: SV-HUC-1, 10 μM, compared with control cells
Description: (§3) Production of ROS was analyzed by flow cytometry. Briefly, cells were plated in 6-well plates, and dichlorofluorescein diacetate (DCFH-DA, […]) were added to the treated cells 30 minutes prior to harvest. The cells were collected by trypsinization and washed with PBS. The green fluorescence of intracellular DCF (2′,7′-dichlorofluorescein) was then analyzed by FACScan™ flow cytometer with a 525-nm band pass filter. The ROS production efficiency (M1 ratio) was calculated as “[counts of treated sample in M1−counts of control in M1]/counts of control in M1×100”.

[6] = tested on: NTUB1 cells; test: Combinational cytotoxicity (MTT, combination index, median-effect analysis); assay type: cell-based, human; details: 24, 48, 72 hours
Description: as §2, with “respectively. […]” for “respectively.”

[7] = tested on: urothelial carcinoma cells T24; test: MTT cytotoxicity assay, T24; assay type: cell-based, human; details: T24, 72 hours; read-out: IC50 (reduction of growth)
Description: as §2

[8] = tested on: NTUB1 cells; test: Intracellular ROS (DCFH-DA flow cytometry), NTUB1; assay type: cell-based, human; details: NTUB1, 10 μM, compared with control cells
Description: as §3

[9] = tested on: normal urothelial cell line SV-HUC-1; test: MTT cytotoxicity assay, SV-HUC-1; assay type: cell-based, human; details: SV-HUC-1, 72 hours; read-out: IC50 (reduction of growth)
Description: as §1
as §2, with “To evaluate the combined effects in growth inhibition, a corresponding combination index (CI) was adopted for the measurement. The combination index of <1, =1, or >1 denotes synergic, additive, or antagonistic effect, respectively.” left out

## N.N.[Cl][Pt][Cl] [CDDP, cis-diamminedichloridoplatinum]
[1]; 72 hours, 1×10^3 cells/well (data not shown), read-out: IC50 to NTUB1 cells
  IC50: 3 µM

## Nc1ccn([C@@H]2O[C@H](CO)[C@@H](O)C2(F)F)c(=O)n1 [Gem, 4-amino-1-(2-deoxy-2,2-difluoro-β-D-erythro-pentofuranosyl)-pyrimidin-2(1H)-on]
[1]; Homo sapiens, NTUB1, 72 hours, 1×10^3 cells/well (data not shown), read-out: IC50 to NTUB1 cells
  IC50: 0.008 µM

## (3Z,4R,5R)-3-tetradecylidene-4-hydroxy-5-methoxy-5-methylbutanolide [subamolide A]
[2]; 10 μM
  Bax/Bcl-2 ratio, fold of change: two-fold increase
  cytochrome c released from mitochondria to cytosol, fold of change: 2.3 folds
[2]; 10 μM, 24 hours, not p38 or JNK
  ERK1/2 activation (immunoblot): specifically activated
[2]; NTUB1 cells
  p53 protein and phosphorylation of p53 at serine 15: induced
[2]; with increased concentration
  pro-caspase 3 and 116 kDa full length PARP proteins: decreased
[3]; 1 μM
  sub-G1 apoptotic fraction: 5%
[3]; 5 μM
  sub-G1 apoptotic fraction: 10.8%
[3]; 10 μM
  sub-G1 apoptotic fraction: 21.9%
[4]
  IC50: 10.1 ± 0.59 µM
[5]
  ROS M1 ratio: −11.6±1.41%
[6]; subamolide A 0, 1, 5, 10 μM + CDDP 1 and 3 μM
  combinational effect with CDDP: synergism
[6]; subamolide A 0, 1, 5, 10 μM + Gem 2 and 8 nM
  combinational effect with Gem: synergism
[7]
  IC50: 7.6 ± 0.96 µM
[8]
  ROS M1 ratio: −14.7±0.99%
[1]; NTUB1, 72 hours, read-out: IC50 (reduction of growth)
  IC50: 7.26 ± 0.67 µM
[9]
  IC50: 18.1 ± 1.03 µM
